According to ChEMBL document CHEMBL5665443, “Enzyme Inhibitor Single Concentration assay results for EUbOPEN Chemogenomics Library” (2024):
Where a SMILES comes first, the peptide text is derived from it. [ ]: non-standard residue; d: D form. The star is where a group is joined. dPhe(4-NHCONH2) = NC(=O)Nc1ccc(C[C@@H](N)C(=O)O)cc1; Dihydroorotyl(S) = O=C1C[C@@H](C(=O)*)NC(=O)N1; dPhe(4-Cl) = N[C@H](Cc1ccc(Cl)cc1)C(=O)O; Phe(4-NH2) = Nc1ccc(C[C@H](N)C(=O)O)cc1; d2Nal = N[C@H](Cc1ccc2ccccc2c1)C(=O)O; Lys(iPr) = CC(C)NCCCC[C@H](N)C(=O)O; d3Pal = N[C@H](Cc1cccnc1)C(=O)O

Columns and labels:
[1] = target: Endonuclease 8-like 1 (Homo sapiens) (UniProt Q96FI4); conditions: Compound Concentration 10.0 uM, Hit No;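 further: fluorescence at 594 nm from quenched duplex DNA oligonucleotides released by NEIL1 cleavage and strand separation, reported as reduction of this enzyme activity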
Sequence of Endonuclease 8-like 1 (Homo sapiens) (Q96FI4 whole entry): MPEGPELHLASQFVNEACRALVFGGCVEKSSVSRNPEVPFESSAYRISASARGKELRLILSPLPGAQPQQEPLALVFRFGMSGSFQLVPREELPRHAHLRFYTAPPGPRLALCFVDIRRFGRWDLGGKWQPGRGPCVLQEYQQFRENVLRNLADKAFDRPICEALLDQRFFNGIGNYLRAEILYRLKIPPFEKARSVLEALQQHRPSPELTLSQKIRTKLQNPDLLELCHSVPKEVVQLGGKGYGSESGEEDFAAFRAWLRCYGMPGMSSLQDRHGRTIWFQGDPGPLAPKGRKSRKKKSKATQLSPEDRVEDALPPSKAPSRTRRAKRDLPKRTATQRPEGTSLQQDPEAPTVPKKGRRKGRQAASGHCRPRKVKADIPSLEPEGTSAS
Description: Inhibition of NEIL1 by quantifying inhibition of NEIL1-mediated cleavage and dissociation of quenched duplex DNA oligonucleotides, measured as fluorescence at 594 nm.

[2] = target: N-glycosylase/DNA lyase (Homo sapiens) (UniProt O15527); conditions: Compound Concentration 10.0 uM;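 further: OGG1 cleavage of a quenched duplex DNA oligonucleotide, coupled to APE1 for strand incision, read as fluorescence at 594 nm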
Sequence of N-glycosylase/DNA lyase (Homo sapiens) (O15527 whole entry): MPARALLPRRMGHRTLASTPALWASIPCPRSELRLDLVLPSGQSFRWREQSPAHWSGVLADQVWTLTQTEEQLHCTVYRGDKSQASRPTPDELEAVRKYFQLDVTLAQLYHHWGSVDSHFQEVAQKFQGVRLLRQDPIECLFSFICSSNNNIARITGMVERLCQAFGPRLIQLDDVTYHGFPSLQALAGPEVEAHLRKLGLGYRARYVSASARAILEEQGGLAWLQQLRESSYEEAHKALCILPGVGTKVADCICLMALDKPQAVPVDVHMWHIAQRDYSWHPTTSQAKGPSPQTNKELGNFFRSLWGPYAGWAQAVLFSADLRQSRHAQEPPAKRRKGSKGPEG
Description: Inhibition of OGG1 by quantifying inhibition of OGG1-mediated cleavage and dissociation of quenched duplex DNA oligonucleotides, measured as fluorescence at 594 nm. To generate a functional strand incision and increase turn-over this assay is coupled to APE1.

[3] = target: T1, Endonuclease 8-like 2 (Homo sapiens) (UniProt Q969S2); conditions: Compound Concentration 10.0 uM;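 further: fluorescence at 594 nm reports NEIL2 cutting and release of a quenched double-stranded DNA oligo substrate, reduced signal read as inhibition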
T1 sequence (whole entry): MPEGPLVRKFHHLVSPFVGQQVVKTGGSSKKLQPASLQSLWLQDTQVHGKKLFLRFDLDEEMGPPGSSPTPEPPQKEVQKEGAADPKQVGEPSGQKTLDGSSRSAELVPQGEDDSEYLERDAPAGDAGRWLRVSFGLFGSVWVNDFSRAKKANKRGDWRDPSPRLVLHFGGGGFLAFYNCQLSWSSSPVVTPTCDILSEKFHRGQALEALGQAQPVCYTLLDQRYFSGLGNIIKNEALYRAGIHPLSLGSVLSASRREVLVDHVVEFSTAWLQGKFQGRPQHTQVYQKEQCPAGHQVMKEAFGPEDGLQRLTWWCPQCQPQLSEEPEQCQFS
Description: Inhibition of NEIL2 by quantifying inhibition of NEIL2-mediated cleavage and dissociation of quenched duplex DNA oligonucleotides, measured as fluorescence at 594 nm.

[4] = target: G/T mismatch-specific thymine DNA glycosylase (Homo sapiens) (UniProt Q13569); conditions: Compound Concentration 10.0 uM, Hit No;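 further: human TDG cleavage of quenched duplex DNA oligonucleotides coupled to APE1, strand release read as fluorescence at 594 nm, inhibition of TDG activity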
Sequence of G/T mismatch-specific thymine DNA glycosylase (Homo sapiens) (Q13569 whole entry): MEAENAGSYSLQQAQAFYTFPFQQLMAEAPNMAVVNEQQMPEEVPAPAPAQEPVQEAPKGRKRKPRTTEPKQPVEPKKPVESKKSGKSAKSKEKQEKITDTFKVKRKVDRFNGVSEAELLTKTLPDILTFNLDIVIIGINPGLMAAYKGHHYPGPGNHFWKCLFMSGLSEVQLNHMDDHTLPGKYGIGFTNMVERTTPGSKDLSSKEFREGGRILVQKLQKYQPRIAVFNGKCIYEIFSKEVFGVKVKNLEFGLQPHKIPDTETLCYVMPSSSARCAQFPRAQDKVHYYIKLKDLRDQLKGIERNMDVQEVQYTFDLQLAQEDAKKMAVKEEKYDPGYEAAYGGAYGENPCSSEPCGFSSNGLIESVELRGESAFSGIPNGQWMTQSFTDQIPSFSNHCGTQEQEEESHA
Description: Inhibition of TDG by quantifying inhibition of TDG-mediated cleavage and dissociation of quenched duplex DNA oligonucleotides, measured as fluorescence at 594 nm. To generate a functional strand incision and increase turn-over this assay is coupled to APE1.

[5] = target: T2, Endonuclease III-like protein 1 (Homo sapiens) (UniProt P78549); conditions: Compound Concentration 10.0 uM, Hit No;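 further: enzyme assay tracking NTHL1 cutting and release of a quenched double-stranded DNA oligo substrate, read as fluorescence at 594 nm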
T2 sequence (whole entry): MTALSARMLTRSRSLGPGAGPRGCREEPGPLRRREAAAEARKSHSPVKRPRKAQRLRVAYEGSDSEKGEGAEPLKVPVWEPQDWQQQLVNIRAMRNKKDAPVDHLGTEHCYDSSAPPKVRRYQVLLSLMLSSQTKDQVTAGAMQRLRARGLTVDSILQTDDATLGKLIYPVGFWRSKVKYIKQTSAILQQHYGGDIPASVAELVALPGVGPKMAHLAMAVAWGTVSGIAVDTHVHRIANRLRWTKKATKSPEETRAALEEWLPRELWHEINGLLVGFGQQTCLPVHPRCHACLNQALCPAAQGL
Description: Inhibition of NTHL1 by quantifying inhibition of NTHL1-mediated cleavage and dissociation of quenched duplex DNA oligonucleotides, measured as fluorescence at 594 nm.

[6] = target: DNA-3-methyladenine glycosylase (Homo sapiens) (UniProt P29372); conditions: Compound Concentration 10.0 uM, Hit No;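 further: enzyme assay where MPG cuts a quenched duplex DNA oligonucleotide probe, paired with APE1 for strand incision and turnover, read as fluorescence at 594 nm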
Sequence of DNA-3-methyladenine glycosylase (Homo sapiens) (P29372 whole entry): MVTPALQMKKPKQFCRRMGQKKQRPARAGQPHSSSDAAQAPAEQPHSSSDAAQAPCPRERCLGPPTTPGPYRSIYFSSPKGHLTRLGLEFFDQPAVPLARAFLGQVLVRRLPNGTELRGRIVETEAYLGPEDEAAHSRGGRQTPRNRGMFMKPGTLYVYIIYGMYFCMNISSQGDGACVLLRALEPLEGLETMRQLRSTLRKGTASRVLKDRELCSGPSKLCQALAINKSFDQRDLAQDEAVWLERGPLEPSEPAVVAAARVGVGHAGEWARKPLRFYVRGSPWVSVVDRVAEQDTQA
Description: Inhibition of MPG by quantifying inhibition of MPG-mediated cleavage and dissociation of quenched duplex DNA oligonucleotides, measured as fluorescence at 594 nm. To generate a functional strand incision and increase turn-over this assay is coupled to APE1.

[7] = target: Uracil-DNA glycosylase (Homo sapiens) (UniProt P13051); conditions: Compound Concentration 10.0 uM;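 further: UNG excision on a quenched double-stranded DNA oligo probe, with APE1 added for strand incision and turnover, read as fluorescence at 594 nm as strands separate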
Sequence of Uracil-DNA glycosylase (Homo sapiens) (P13051 whole entry): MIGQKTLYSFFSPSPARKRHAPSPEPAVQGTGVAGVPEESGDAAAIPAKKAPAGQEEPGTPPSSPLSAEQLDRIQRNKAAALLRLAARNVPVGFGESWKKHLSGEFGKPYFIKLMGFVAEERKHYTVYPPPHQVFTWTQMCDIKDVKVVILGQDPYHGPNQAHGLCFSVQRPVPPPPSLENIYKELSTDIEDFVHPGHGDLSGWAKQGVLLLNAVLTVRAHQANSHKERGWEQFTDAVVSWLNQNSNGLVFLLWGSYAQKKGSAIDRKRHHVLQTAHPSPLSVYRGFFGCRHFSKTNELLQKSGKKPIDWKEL
Description: Inhibition of UNG by quantifying inhibition of UNG-mediated cleavage and dissociation of quenched duplex DNA oligonucleotides, measured as fluorescence at 594 nm. To generate a functional strand incision and increase turn-over this assay is coupled to APE1.

[8] = target: T3, Single-strand selective monofunctional uracil DNA glycosylase (Homo sapiens) (UniProt Q53HV7); conditions: Compound Concentration 10.0 uM;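 further: enzymatic SMUG1 assay coupled with APE1, reading fluorescence at 594 nm released when a quenched double-stranded DNA oligonucleotide substrate is cleaved and separated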
T3 sequence (whole entry): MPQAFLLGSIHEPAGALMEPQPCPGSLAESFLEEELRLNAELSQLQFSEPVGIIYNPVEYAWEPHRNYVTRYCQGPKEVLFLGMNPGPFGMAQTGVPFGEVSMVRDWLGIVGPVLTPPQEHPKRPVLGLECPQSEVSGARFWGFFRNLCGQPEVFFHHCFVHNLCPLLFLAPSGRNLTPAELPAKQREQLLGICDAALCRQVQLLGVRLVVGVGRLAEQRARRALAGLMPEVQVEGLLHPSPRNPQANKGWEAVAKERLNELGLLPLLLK
Description: Inhibition of SMUG1 by quantifying inhibition of SMUG1-mediated cleavage and dissociation of quenched duplex DNA oligonucleotides, measured as fluorescence at 594 nm. To generate a functional strand incision and increase turn-over this assay is coupled to APE1.

[9] = target: Methyl-CpG-binding domain protein 4 (Homo sapiens) (UniProt O95243); conditions: Compound Concentration 10.0 uM;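 further: MBD4 activity read as fluorescence at 594 nm from cleavage and release of a quenched duplex DNA oligonucleotide, with APE1 coupled to incise the strand and raise turnover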
Sequence of Methyl-CpG-binding domain protein 4 (Homo sapiens) (O95243 whole entry, the tested form may be a part): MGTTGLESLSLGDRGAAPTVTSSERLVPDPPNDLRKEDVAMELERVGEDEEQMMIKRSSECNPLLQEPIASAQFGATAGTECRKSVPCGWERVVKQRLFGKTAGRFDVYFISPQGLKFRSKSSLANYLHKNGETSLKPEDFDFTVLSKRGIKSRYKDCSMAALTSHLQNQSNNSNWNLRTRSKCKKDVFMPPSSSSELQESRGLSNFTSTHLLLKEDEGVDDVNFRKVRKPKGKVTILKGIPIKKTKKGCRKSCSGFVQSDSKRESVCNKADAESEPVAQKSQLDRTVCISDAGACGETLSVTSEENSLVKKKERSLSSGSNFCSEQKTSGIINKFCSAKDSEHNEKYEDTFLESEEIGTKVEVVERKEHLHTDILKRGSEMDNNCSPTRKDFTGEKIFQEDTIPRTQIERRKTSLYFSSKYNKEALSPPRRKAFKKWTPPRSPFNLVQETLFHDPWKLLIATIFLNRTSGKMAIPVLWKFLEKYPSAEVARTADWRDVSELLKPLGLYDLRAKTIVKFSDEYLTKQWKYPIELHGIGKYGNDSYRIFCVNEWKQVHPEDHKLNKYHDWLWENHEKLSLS
Description: Inhibition of MBD4 by quantifying inhibition of MBD4-mediated cleavage and dissociation of quenched duplex DNA oligonucleotides, measured as fluorescence at 594 nm. To generate a functional strand incision and increase turn-over this assay is coupled to APE1.

| SMILES | inhibition [1] [%] | inhibition ([2]; Hit No) [%] | inhibition ([3]; Hit No) [%] | inhibition [4] [%] | inhibition [5] [%] | inhibition [6] [%] | inhibition ([7]; Hit No) [%] | inhibition ([8]; Hit No) [%] | inhibition ([9]; Hit No) [%] | inhibition ([3]; Hit Yes) [%] | inhibition ([9]; Hit Yes) [%] | inhibition ([2]; Hit Yes) [%] | inhibition ([7]; Hit Yes) [%] | inhibition ([8]; Hit Yes) [%] |
| --- | --- | --- | --- | --- | --- | --- | --- | --- | --- | --- | --- | --- | --- | --- |
| CSc1nc(NC2CCCC2)c([N+](=O)[O-])c(NC2CCCC2)n1 | 2.61 | -2.94 | 7.5 | 7.68 | 21 | -2.56 |  |  |  |  |  |  |  |  |
| O=C1CSC(=O)N1C(CCc1ccncc1)COc1ccc(-c2cccc([N+](=O)[O-])c2)cc1 (centres undefined) | 2.68 | -1.32 | 3.73 | -8.91 | 17.1 | -5.43 | -2.95 | 6.99 |  |  |  |  |  |  |
| CCOc1ccccc1C(=O)NCC1(N2CCN(CC)CC2)CCCCC1 | -3.55 |  | 3.22 | 5.23 |  | -0.78 | -8.16 | -8.6 | -3.81 |  |  |  |  |  |
| COC(=O)[C@H](CCCN=C(N)N)NC(=O)CCCc1c(-c2ccccc2)[nH]c2c(F)cc(F)cc12 | 5.58 | -3.54 |  | 16.3 | -5.41 | 5.31 | -5.65 |  |  | 38.2 |  |  |  |  |
| N#Cc1c(Oc2cccc(OS(=O)(=O)CCCC(F)(F)F)c2)cccc1C(F)(F)F |  | -7.69 | -7.74 | -4.05 | -1.91 | 8.15 | -1.27 |  |  |  |  |  |  |  |
| Cc1ccc(OCC(O)C(C)NC(C)C)c2c1CCC2 (centres undefined) | 7.65 | -9.41 | -0.983 | 8.49 |  | 6.31 |  |  |  |  | 134 |  |  |  |
| C[C@H](NC(=O)CNC(=O)c1cccc(Cl)c1)c1ccccc1 | -1.54 | -9.41 | -8.97 | 6.8 |  | 13.7 |  |  | -8.91 |  |  |  |  |  |
| CN1CCCC(n2nc(Cc3ccc(Cl)cc3)c3ccccc3c2=O)CC1 (centres undefined) | -7.17 | -0.805 | 0.515 | 14.5 |  | -9.23 | -8.14 | 1.52 |  |  |  |  |  |  |
| CS(=O)(=O)c1ccc(C(=O)Nc2ccc(Cl)c(-c3ccccn3)c2)c(Cl)c1 | 3.5 |  | 5.76 | 6.01 | -9.8 | 3.65 |  |  |  |  |  |  |  |  |
| CC[C@H]1CN2CCc3cc(OC)c(OC)cc3[C@@H]2C[C@@H]1C[C@H]1NCCc2cc(OC)c(OC)cc21 | -0.5 |  | 4.51 | -0.514 | 3.39 | -9.31 |  | -7.35 |  |  |  |  |  |  |
| COC(=O)C1=C(C)NC(C)=C(C(=O)OCCCN2CCC(c3ccccc3)(c3ccccc3)CC2)[C@H]1c1cccc([N+](=O)[O-])c1 |  | -5.2 | 13.7 | 35.3 |  | -9.35 | -9.34 | 9.7 | -5.72 |  |  |  |  |  |
| Cc1nn(C)c(C)c1-c1cccc2c1CC[C@H](N(C)C)C2 | 1.87 | -7.75 | -0.234 | -4.55 | 6.32 | -9.58 |  |  |  |  |  |  |  |  |
| O=S1(=O)c2cccc3cccc(c23)N1CCCN1CCN(c2ccc(F)cc2)CC1 | -4.8 | 7.99 | -0.483 | 19 | 18.1 | -8.54 | -2.78 | 12.8 |  |  |  |  |  |  |
| Cc1[nH]cnc1CN1CCc2c(c3ccccc3n2C)C1=O | 11.2 | 1.31 |  | 19 |  | 3.5 | -6.85 | 3.41 | 11.9 |  |  |  |  |  |
| C[C@H](CCC(=O)O)[C@H]1CC[C@H]2[C@@H]3CC[C@@H]4C[C@H](O)CC[C@]4(C)[C@H]3CC[C@]12C | 10 | 4.17 | 8 | 21.8 |  | 15.2 | -8.43 | -9.19 |  |  | 140 |  |  |  |
| Cc1nnsc1C(=O)Nc1ccc(-n2nc(C(F)(F)F)cc2C(F)(F)F)cc1 | 0.306 | 15.7 | 0.414 |  | 14.6 | -1.63 | -0.15 | 15.8 |  |  |  |  |  |  |
| N#Cc1c[nH]c2c(C(=O)N3CCN(CCc4ccc(F)cc4)CC3)cccc12 |  | -8.41 | -4.73 |  | -5.41 | -7.3 | -9.6 | -8.12 |  |  |  |  |  |  |
| Nc1nc(-c2ccco2)c2cnn(Cc3ccccc3F)c2n1 | -2.72 |  |  | -4.93 |  | -1.21 | -7.72 |  | -3.33 |  |  |  |  |  |
| Cc1cc(Cn2nnc3c(-c4ccco4)nc(N)nc32)ccc1N | -2.58 | 0.253 | 2.26 | 17.6 |  | -3.71 |  | -2.07 | 4.16 |  |  |  |  |  |
| C[C@H](CO)Nc1nc(SCc2cccc(Cl)c2F)nc2[nH]c(=O)sc12 | 8.99 | 5.5 | -2.98 | 22 |  | 2.92 | -8.73 | 6.22 | 13.6 |  |  |  |  |  |
| CCOc1ccc(Cc2nc3cc(C(=O)N(CC)CC)ccc3n2CC2CCCCC2)cc1 | 2.91 | 9.81 | 4.01 | 2.76 |  | -2.6 | -9.77 | 2.19 |  |  |  |  |  |  |
| CN1[C@@H](CC(=O)c2ccccc2)CCC[C@H]1C[C@H](O)c1ccccc1 | 1.64 | -6.7 |  | -5.94 | -8.51 | -4.83 | -4.79 | 1.46 |  |  |  |  |  |  |
| OCc1cc(C(O)CNCCCCCCOCCCCc2ccccc2)ccc1O (centres undefined) | 8.39 | -5.95 | 4.01 | 6.25 | 11.4 | 0.951 | -9.38 |  |  |  |  |  |  |  |
| COc1ccccc1N1CCN(CCCCNC(=O)c2ccc3ccccc3c2)CC1 | 4.99 | 9.63 | 11 | 10.4 |  | 14.3 | -4.08 |  | 0.789 |  |  |  |  |  |
| CC(=O)N[C@H](Cc1ccc2ccccc2c1)C(=O)N[C@H](Cc1ccc(Cl)cc1)C(=O)N[C@H](Cc1cccnc1)C(=O)N[C@@H](CO)C(=O)N[C@@H](Cc1ccc(NC(=O)[C@@H]2CC(=O)NC(=O)N2)cc1)C(=O)N[C@H](Cc1ccc(NC(N)=O)cc1)C(=O)N[C@@H](CC(C)C)C(=O)N[C@@H](CCCCNC(C)C)C(=O)N1CCC[C@H]1C(=O)N[C@H](C)C(N)=O (Ac-[d2Nal][dPhe(4-Cl)][d3Pal]S[Phe(4-NH2)](Dihydroorotyl(S))[dPhe(4-NHCONH2)]L[Lys(iPr)]P[dA]-NH2) |  |  | 25.7 | 56.9 | 7.79 | 22.6 |  |  |  |  |  | 98.4 | 86.3 | 53.4 |
| CC1CCN(CC[C@H]2CCCN2S(=O)(=O)c2cccc(O)c2)CC1 | 8.25 | -3.4 | -5.22 | 2.43 |  | -7.22 | -9.71 | 3.5 | 6.36 |  |  |  |  |  |
| CCC(=O)NCC[C@@H]1CCc2ccc3c(c21)CCO3 | 10.6 | 6.47 | 6 | 9.54 |  | 4.81 | -9.69 | -9.19 | -9.72 |  |  |  |  |  |
| O=C(NCC1(N2CCN(c3ccccc3)CC2)CCOCC1)c1cccnc1Sc1ccccc1 | -4.14 |  | -7.99 | -0.15 | 23.7 | 1.32 | 1.03 | 2.13 |  |  |  |  |  |  |
| CC[C@@H](C)Nc1nc(C)nc2c(-c3ccc(OC)nc3C)c(C)nn12 | 4.1 | -1.59 | 2.26 | 17.1 |  | 9.17 | -5.14 | 10.2 | 8.63 |  |  |  |  |  |
